Entries after “also recorded” stand apart in the source; their conditions may differ.
Key:
[1] = system: T cell response of human PBMC to allogenic stimulation by Namalwa cells; test: Mixed Lymphocyte Reaction (proliferation and IFN-γ secretion); format: cell-based; settings: 6 days; FIGS. 1-3
Description: This reaction measures the T cell response to allogenic stimulation by a mismatch of class II histocompatability antigens. This is triggered through the T cell receptor and activates the T cell to secrete and proliferate in response to endogenous IL-2. IFN-γ is also made in response to this stimulation and accumulates in the culture medium. Compounds are tested for their ability to block the proliferation and response to antigenic stimulation as well as their ability to produce IFN-γ as follows. A human B cell ine expressing class II antigen, Namalwa (American Type Culture Collection), is incubated for 2 hr at 37° C. in RPMI-10 containing mitomycin C (50 μg/ml). These cells are washed four times by centrifugation and resuspension (10^6 cells/ml) in SF-RPMI medium and are added to the wells of 96-well plate (50 μl/well) as stimulators. Mitomycin treatment prevents these cells from proliferating in the assay. Fresh PBMC are prepared as described above in example 1, but are not activated with PHA. Instead they are resuspended at 10^6 cells/ml and 100 μl is added per well. Dilutions of test compounds are added (50 μl/well) to give a final volume of 200 μl and the plates are incubated for 6 days at 37° C. During the last 18 hr, ^3 H-thymidine (DuPont-NEN- 1 μCi/well) is added as a measure of cell proliferation, cultures are collected using a cell harvester (Packard), and scintillation fluid is added prior to counting in a Packard Top Count scintillation counter. A sample of medium is also collected for measurement of IFN-γ production prior to the addition of ^3 H-thymidine for use as a negative control.

[2] = Toxicity of bis-compounds after single systemic dose; format: in vivo; settings: mouse, in vivo, 16% cremaphor, single dose
mice = test: as above; format: in vivo; settings: 16% cremaphor
[3] = system: IL-12 induction of IFN-γ in PHA-activated human PBMC; test: Screening assay for compounds which inhibit IL-12 induction of IFN-γ (ELISA); format: cell-based; settings: 5 μg/ml, IL-2 25 U/ml + IL-12 0.5 ng/ml, 48 hr, single test, read-out: % INH of IFNγ
Description: Human peripheral blood monocytes (PBMC) were obtained from commercial sources as a leukophoresis from a healthy volunteer and were purified by centrifugation on a Ficoll-Hypaque (Pharmacia) gradient (1700 rpm for 20 min). The "buffy" coat containing the PBMC was diluted with serum-free culture medium (SF-RPMI) to a volume of 50 ml and collected by centrifugation at 1500 rpm for 5 min. Cells were resuspended in cell culture medium containing 10% fetal bovine serum (RPMI-10) and phytohemaglutinin (PHA - 10 μg/ml) at a density of 5×10^6 cells/ml and were cultured for 3 days at 37° C. in a humidified CO2 incubator. The PHA-activated cells were collected by centrifugation, washed three times with an equal volume of SF-RPMI and resuspended in fresh RPMI-10 (1×10^6 cells /ml). Aliquots (100 μl) were dispensed into the wells of multiple 96-well plates to give a final cell number of 10^5 per well. Test compounds, dissolved in dimethyl sulfoxide (DMSO) at 1 mg/ml, were first diluted in culture medium to an intermediate concentration of 20 μg/ml and then were added (50 μwell) to a specific well of the plate for each compound. Stimulation medium (50 μl/well) containing 10% serum, IL-2 and IL-12 was added to final concentrations of 25 U/ml and 0.5 ng/ml, respectively. Control wells receive no IL-2 or IL-12 (negative control) or received both interleukins but no test compound (positive control). The plates were incubated for 48 hr at 37° C. in a CO2 incubator at which time aliquots (20 μl) were removed for analysis of IFN-γ concentration by ELISA. A quantitative ELISA was developed by coating 96-well plates with an mouse monoclonal antibody against human IFN-γ, 1 μg/ml in phosphate buffered saline (PBS) (Pestka Biological Laboratories), overnight at 4° C. Unbound antibody was washed off by washing three times with PBS. Non-specific antibody binding was blocked with a solution of 1% bovine serum albumin (BSA) and 1% goat serum in PBS (150 μl/well) which was incubated for 2 hr at 37° C. After washing the blocked plates four times with PBS, test samples and dilutions of the IFN-γ standard are added in a final volume of 100 μl/well. Following an overnight incubation at 4° C., the plates are washed four times with PBS, and a polyclonal rabbit antiserum against human IFN-γ (1/10000 dilution--Petska Biological Laboratories) is added. After an additional incubation for 1 hr at 37° C. and four washes with PBS, a polyclonal donkey anti-rabbit detecting antibody, conjugated to horseradish peroxidase (1/700 dilution--Petska Biological Laboratories) is added for 1 hr at 37° C. The plates are then washed four times with PBS and 100 μl of K-blue substrate E(ILISA Technologies, Neogen Corp.) is added until the color in the wells containing the standard curve is sufficiently developed, at which time 100 μl of "Red-stop" solution (ELISA Technologies) is added. The absorbance of the solution within each well of the plate is then read at 650 nm using an ELISA plate reader (Dynatech MR7000). The amount of IFN-γ is calculated by comparing the optical density of the test sample with a standard curve derived from the dilutions of the control IFN-y. The amount of IFN-γ that is induced in the presence of both IL-2 and IL-12 generally ranges from 1200-2000 pg/ml while the amount produced in the absence of IL-12 is generally less than 50 pg/ml. Experimental data are shown in Table 2 which discloses a) the percent inhibition of IFNγ production, relative to a […], when the cells have been treated with a bis-compound at a final concentration of 5 μg/ml of the listed bis-compound (%INH or IFNγ) and b) the percent of cells which are viable after the treatment with 5 μg/ml of the various bis-compounds, determined by adding MTS to the media (% Viability). MTS is a chemical chromophore that is metabolized in the mitochondria of viable cells to produce a color which increases in intensity in proportion to the numbers of viable cells. […]

[4] = Cell viability (MTS) after treatment with bis-compound; format: cell-based; settings: human, pha-activated pbmc, 5 μg/ml
Description: Human peripheral blood monocytes (PBMC) were obtained from commercial sources as a leukophoresis from a healthy volunteer and were purified by centrifugation on a Ficoll-Hypaque (Pharmacia) gradient (1700 rpm for 20 min). The "buffy" coat containing the PBMC was diluted with serum-free culture medium (SF-RPMI) to a volume of 50 ml and collected by centrifugation at 1500 rpm for 5 min. Cells were resuspended in cell culture medium containing 10% fetal bovine serum (RPMI-10) and phytohemaglutinin (PHA - 10 μg/ml) at a density of 5×10^6 cells/ml and were cultured for 3 days at 37° C. in a humidified CO2 incubator. The PHA-activated cells were collected by centrifugation, washed three times with an equal volume of SF-RPMI and resuspended in fresh RPMI-10 (1×10^6 cells /ml). Aliquots (100 μl) were dispensed into the wells of multiple 96-well plates to give a final cell number of 10^5 per well. Test compounds, dissolved in dimethyl sulfoxide (DMSO) at 1 mg/ml, were first diluted in culture medium to an intermediate concentration of 20 μg/ml and then were added (50 μwell) to a specific well of the plate for each compound. Stimulation medium (50 μl/well) containing 10% serum, IL-2 and IL-12 was added to final concentrations of 25 U/ml and 0.5 ng/ml, respectively. Control wells receive no IL-2 or IL-12 (negative control) or received both interleukins but no test compound (positive control). The plates were incubated for 48 hr at 37° C. in a CO2 incubator at which time aliquots (20 μl) were removed for analysis of IFN-γ concentration by ELISA. A quantitative ELISA was developed by coating 96-well plates with an mouse monoclonal antibody against human IFN-γ, 1 μg/ml in phosphate buffered saline (PBS) (Pestka Biological Laboratories), overnight at 4° C. Unbound antibody was washed off by washing three times with PBS. Non-specific antibody binding was blocked with a solution of 1% bovine serum albumin (BSA) and 1% goat serum in PBS (150 μl/well) which was incubated for 2 hr at 37° C. After washing the blocked plates four times with PBS, test samples and dilutions of the IFN-γ standard are added in a final volume of 100 μl/well. Following an overnight incubation at 4° C., the plates are washed four times with PBS, and a polyclonal rabbit antiserum against human IFN-γ (1/10000 dilution--Petska Biological Laboratories) is added. After an additional incubation for 1 hr at 37° C. and four washes with PBS, a polyclonal donkey anti-rabbit detecting antibody, conjugated to horseradish peroxidase (1/700 dilution--Petska Biological Laboratories) is added for 1 hr at 37° C. The plates are then washed four times with PBS and 100 μl of K-blue substrate E(ILISA Technologies, Neogen Corp.) is added until the color in the wells containing the standard curve is sufficiently developed, at which time 100 μl of "Red-stop" solution (ELISA Technologies) is added. The absorbance of the solution within each well of the plate is then read at 650 nm using an ELISA plate reader (Dynatech MR7000). The amount of IFN-γ is calculated by comparing the optical density of the test sample with a standard curve derived from the dilutions of the control IFN-y. […] MTS is a chemical chromophore that is metabolized in the mitochondria of viable cells to produce a color which increases in intensity in proportion to the numbers of viable cells. The absorbance of the cell culture can be compared to control cultures in order to determine the percent viability.

[5] = iv, 20% DMSO, conc. sol. 10 mg/ml
[6] = 100 mg/kg IV, 20% DMSO, 10 mg/ml
[7] = 150 mg/kg IV, 20% DMSO, 10 mg/ml
[8] = IV, 20% DMSO, conc. sol. 10 mg/ml
[9] = 80 mg/kg IV, 20% DMSO, 10 mg/ml
[10] = 100 mg/kg IV, 20% EGME, 10 mg/ml
[11] = 150 mg/kg IV, 20% EGME, 10 mg/ml

Structure (SMILES)	LD50 [2, 5]	Results (Dead/Alive) (mice; [6])	Results (Dead/Alive) (mice; [7])	inhibition at 5 µg/mL [3]	viability [4]	also measured
Nc1nc2nn[nH]c2c(=O)[nH]1 [Compound 8-azaguanine, 8-azaguanine, reference compound]	–	–	–	–	–	inhibition of IFN-γ secretion versus cell proliferation (in words) [1]: general immunosuppressant
Cc1cc(C)c(O)c(C(CCCCCCC(C)C)c2cc(C)cc(C)c2O)c1 [Compound 8302]	> 150 mg/kg	Alive	Alive	95%	100%	LD50 ([2]; iv, 20% DMSO, conc. sol. 15 mg/ml): 200 mg/kg; Results (Dead/Alive) (mice; 200 mg/kg IV, 20% DMSO, 15 mg/ml): Alive 1; also recorded: Dead 1
Cc1cc(C)c(O)c(Cc2cc(C)cc(C)c2O)c1 [Compound 51850]	> 150 mg/kg	Alive	Alive	77%	97%	–
CCCCC(C)(c1cc(C)c(O)c(C)c1)c1cc(C)c(O)c(C)c1 [Compound 52782]	–	–	–	102%	116%	LD50 [2, 8]: < 80 mg/kg; Results (Dead/Alive) (mice; [9]): Dead
CCC(C)(c1ccc(O)c(C)c1)c1ccc(O)c(C)c1 [Compound 54003]	100 to 150 mg/kg	Alive	Dead	101%	85%	–
CCCCCCC(c1cc(C)cc(C)c1O)c1cc(C)cc(C)c1O [Compound 54015]	> 80 mg/kg	–	–	96%	34%	Results (Dead/Alive) (mice; [9]): Alive
Cc1cc(C(CCc2ccccc2)c2cc(C)cc(C(C)(C)C)c2O)c(O)c(C(C)(C)C)c1 [Compound 54016]	> 150 mg/kg	Alive	Alive	26%	98%	–
CCCCCC(c1cc(C)cc(C(C)(C)C)c1O)c1cc(C)cc(C(C)(C)C)c1O [Compound 54018]	–	–	–	55%	92%	LD50 ([2]; IV, 20% EGME, conc. sol. 10 mg/ml): < 100 mg/kg; Results (Dead/Alive) (mice; [10]): Dead; Results (Dead/Alive) (mice; [11]): Dead
CCCCCC(c1cc(C)cc(C)c1O)c1cc(C)cc(C)c1O [Compound 54019]	100 to 150 mg/kg	Alive	Dead	77%	101%	–
CCCCC(c1cc(C)cc(C(C)(C)C)c1O)c1cc(C)cc(C(C)(C)C)c1O [Compound 54020]	–	–	–	69%	95%	LD50 ([2]; iv, 20% EGME, conc. sol. 10 mg/ml): 100 to 150 mg/kg; Results (Dead/Alive) (mice; [10]): Alive; Results (Dead/Alive) (mice; [11]): Dead
CCCC(c1cc(C)c(O)c(C)c1)c1cc(C)c(O)c(C)c1 [Compound 54044]	> 150 mg/kg	Alive	Alive	98%	92%	–
Cc1cc(C(C)(C)c2cc(C)c(O)c(C)c2)cc(C)c1O [Compound 54046]	–	Alive	Alive	–	95%	LD50 [2, 8]: > 150 mg/kg
CCCC(C)(c1cc(C)c(O)c(C)c1)c1cc(C)c(O)c(C)c1 [Compound 54064]	100 to 150 mg/kg	Alive	Dead	79%	112%	–

Reference: US5880146A, “Inhibition of IL-12-induced IFN-γ synthesis by specific bis-phenol compounds as a method of immune modulation” (Fuji ImmunoPharmaceuticals Corporation, priority 1995, dated 1999)
